Data on two compounds can be found in ChEMBL document CHEMBL1126422, “The preparation of novel dopamine analogues via palladium catalysed cyclisation reactions” (Bioorg Med Chem Lett, 1992).

This test addresses D(3) dopamine receptor (Rattus norvegicus, UniProt P19020). Description: Compound was tested for binding affinity at the rat Dopamine receptor D3 expressed in Chinese hamster ovary cells; No significant affinity. The class given is cell-based.

D(3) dopamine receptor, sequence (P19020 whole entry): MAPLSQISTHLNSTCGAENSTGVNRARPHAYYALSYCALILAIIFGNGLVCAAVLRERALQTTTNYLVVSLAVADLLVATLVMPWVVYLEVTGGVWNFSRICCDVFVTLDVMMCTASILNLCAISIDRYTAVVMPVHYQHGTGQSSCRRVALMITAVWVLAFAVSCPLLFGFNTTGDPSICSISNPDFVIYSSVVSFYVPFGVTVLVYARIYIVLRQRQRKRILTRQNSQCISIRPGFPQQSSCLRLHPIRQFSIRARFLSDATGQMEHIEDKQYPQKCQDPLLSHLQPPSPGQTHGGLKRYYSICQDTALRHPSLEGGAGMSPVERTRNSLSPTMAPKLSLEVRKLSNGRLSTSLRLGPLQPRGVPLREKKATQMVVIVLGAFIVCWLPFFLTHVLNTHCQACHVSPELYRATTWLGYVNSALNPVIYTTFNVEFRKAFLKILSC

As to `C=C1c2ccccc2OC[C@@H]1NCCC.Cl`, the Log Ki is > -6.5.

On to `CCCN[C@H]1COc2ccccc2[C@@H]1C.Cl`, for which the “Log Ki” value is reported as < -6.5.
